The results in this text go back to paper doi:10.1101/2023.03.24.534094v2 (biorxiv, 2023).

SMILES strings stand for the structures. Where two headings read alike, the source gives them in different places.

Targets include LOK (Homo sapiens, UniProt O94804); EphA7 (Homo sapiens, UniProt Q15375); MARK3 (Homo sapiens, UniProt P27448); MELK (Homo sapiens, UniProt Q14680); FLT1 (Homo sapiens, UniProt P17948); EpHA5 (Homo sapiens, UniProt P54756); BRD4 (Homo sapiens, UniProt O60885); GPRK5 (Homo sapiens, UniProt P34947).
Common to all, as to test: biochemical
The next test concerns the target T1, EphB1 (Homo sapiens, UniProt P54762).
T1 sequence (P54762 1-984): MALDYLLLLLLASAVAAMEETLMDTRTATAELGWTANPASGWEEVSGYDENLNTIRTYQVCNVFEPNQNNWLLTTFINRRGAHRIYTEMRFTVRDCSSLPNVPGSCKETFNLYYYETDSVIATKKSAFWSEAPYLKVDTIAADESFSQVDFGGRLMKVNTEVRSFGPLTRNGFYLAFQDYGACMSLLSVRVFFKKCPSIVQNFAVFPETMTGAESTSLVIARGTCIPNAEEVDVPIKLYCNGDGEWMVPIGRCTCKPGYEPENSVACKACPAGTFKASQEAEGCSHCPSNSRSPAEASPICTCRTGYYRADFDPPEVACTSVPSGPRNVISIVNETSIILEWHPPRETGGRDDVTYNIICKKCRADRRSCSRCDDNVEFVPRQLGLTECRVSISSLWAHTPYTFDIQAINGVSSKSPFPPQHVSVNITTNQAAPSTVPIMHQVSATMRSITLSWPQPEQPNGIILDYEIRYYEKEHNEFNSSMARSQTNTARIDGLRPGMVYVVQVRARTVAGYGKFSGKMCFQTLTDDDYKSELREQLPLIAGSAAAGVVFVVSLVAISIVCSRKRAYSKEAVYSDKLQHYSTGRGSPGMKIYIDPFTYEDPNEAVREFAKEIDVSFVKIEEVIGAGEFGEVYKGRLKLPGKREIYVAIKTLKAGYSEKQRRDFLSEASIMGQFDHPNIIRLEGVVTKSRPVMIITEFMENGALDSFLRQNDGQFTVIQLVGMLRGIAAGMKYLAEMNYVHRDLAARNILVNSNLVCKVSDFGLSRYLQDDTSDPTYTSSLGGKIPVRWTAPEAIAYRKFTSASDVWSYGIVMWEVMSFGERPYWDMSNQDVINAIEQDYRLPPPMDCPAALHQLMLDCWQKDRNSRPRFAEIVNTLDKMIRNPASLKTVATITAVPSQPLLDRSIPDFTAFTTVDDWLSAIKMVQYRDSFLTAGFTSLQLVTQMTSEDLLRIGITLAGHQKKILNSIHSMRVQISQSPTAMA

The target of another test is T2, ULK3 (Homo sapiens, UniProt Q6PHR2).
T2 sequence (Q6PHR2 1-472): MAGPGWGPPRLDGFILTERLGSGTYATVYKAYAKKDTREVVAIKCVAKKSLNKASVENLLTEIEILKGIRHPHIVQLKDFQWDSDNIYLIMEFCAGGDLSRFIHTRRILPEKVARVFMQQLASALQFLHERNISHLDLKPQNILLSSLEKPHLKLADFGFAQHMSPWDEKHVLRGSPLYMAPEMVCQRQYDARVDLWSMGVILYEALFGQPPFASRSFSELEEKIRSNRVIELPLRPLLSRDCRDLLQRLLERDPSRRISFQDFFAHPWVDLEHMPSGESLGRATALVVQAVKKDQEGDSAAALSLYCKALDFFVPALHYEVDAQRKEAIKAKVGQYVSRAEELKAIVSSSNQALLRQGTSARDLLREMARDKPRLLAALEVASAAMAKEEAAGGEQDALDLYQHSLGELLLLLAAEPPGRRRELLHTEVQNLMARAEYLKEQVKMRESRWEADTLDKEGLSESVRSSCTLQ

For a further test, the target named is T3, MYT1 (Homo sapiens, UniProt Q99640).
T3 sequence (Q99640 1-499): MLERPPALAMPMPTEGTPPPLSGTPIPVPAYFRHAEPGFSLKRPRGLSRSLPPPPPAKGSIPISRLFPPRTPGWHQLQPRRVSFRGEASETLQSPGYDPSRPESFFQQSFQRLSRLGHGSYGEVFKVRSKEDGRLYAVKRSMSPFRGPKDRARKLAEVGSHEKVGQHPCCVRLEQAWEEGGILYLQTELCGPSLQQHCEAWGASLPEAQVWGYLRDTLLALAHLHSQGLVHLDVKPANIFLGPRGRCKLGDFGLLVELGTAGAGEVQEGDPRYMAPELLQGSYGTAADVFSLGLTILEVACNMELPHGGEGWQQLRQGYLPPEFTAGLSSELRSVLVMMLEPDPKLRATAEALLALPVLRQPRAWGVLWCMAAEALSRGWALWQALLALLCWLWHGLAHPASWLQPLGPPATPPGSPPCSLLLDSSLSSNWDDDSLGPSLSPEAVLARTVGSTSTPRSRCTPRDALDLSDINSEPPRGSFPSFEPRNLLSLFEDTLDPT

Chain of GPRK5 (P34947 whole entry): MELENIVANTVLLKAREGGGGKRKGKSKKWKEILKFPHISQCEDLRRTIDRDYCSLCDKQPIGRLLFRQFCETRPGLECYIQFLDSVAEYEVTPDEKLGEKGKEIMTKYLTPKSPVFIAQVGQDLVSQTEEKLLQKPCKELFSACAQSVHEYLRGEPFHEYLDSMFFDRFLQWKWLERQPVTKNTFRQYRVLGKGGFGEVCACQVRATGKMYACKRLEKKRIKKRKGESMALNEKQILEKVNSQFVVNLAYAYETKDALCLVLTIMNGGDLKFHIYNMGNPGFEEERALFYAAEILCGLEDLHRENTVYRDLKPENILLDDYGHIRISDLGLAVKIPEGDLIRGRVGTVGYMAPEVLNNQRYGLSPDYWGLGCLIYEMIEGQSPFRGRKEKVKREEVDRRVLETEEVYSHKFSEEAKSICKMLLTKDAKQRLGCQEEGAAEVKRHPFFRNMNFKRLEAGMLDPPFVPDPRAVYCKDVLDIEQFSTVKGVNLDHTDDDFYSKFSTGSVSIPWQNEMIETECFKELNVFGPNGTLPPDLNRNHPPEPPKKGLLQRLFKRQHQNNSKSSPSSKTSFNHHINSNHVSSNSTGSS
Chain of MARK3 (P27448 whole entry): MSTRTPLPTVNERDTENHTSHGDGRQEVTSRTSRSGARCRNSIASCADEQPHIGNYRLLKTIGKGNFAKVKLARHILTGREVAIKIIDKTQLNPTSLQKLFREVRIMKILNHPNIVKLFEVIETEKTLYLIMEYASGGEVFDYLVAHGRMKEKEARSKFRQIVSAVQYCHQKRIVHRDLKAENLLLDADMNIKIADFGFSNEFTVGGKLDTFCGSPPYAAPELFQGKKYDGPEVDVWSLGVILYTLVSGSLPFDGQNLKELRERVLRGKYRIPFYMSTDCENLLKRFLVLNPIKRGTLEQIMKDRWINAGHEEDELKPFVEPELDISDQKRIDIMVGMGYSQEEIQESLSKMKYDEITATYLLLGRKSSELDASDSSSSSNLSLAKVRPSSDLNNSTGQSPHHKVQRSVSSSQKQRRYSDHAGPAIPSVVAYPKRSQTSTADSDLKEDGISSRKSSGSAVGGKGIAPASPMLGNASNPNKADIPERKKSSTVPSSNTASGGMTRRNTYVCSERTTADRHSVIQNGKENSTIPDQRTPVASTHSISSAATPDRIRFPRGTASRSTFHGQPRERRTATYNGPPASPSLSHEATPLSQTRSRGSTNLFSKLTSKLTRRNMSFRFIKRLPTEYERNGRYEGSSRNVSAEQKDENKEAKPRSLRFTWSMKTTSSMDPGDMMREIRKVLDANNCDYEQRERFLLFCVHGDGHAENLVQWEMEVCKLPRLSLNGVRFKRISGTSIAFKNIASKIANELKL
Chain of EpHA5 (P54756 whole entry): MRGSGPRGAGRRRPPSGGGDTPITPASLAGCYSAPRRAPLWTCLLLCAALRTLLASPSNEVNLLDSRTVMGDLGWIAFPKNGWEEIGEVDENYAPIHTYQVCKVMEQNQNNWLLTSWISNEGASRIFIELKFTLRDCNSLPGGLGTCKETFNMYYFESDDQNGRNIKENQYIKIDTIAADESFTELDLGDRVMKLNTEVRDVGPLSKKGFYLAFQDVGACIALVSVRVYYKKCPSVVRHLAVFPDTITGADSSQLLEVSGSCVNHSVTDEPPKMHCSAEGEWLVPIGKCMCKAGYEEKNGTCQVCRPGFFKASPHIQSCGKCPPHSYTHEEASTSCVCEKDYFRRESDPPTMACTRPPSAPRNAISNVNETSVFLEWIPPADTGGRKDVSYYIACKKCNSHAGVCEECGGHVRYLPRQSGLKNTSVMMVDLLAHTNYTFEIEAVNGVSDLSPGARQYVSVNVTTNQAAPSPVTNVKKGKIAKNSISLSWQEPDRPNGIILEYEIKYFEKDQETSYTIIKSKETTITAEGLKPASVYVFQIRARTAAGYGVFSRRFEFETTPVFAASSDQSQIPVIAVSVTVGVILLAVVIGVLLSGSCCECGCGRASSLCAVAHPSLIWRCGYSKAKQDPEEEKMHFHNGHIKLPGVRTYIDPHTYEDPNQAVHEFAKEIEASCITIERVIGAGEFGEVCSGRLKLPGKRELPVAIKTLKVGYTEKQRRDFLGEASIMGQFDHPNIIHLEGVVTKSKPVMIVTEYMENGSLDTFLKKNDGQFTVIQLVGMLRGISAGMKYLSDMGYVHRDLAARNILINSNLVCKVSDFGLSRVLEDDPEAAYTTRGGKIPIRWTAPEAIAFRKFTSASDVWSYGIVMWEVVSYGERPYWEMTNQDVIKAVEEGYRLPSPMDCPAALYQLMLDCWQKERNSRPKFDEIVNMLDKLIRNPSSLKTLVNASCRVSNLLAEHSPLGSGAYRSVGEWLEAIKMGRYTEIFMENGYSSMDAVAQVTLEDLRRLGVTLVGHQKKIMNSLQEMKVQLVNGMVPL
Chain of LOK (O94804 whole entry): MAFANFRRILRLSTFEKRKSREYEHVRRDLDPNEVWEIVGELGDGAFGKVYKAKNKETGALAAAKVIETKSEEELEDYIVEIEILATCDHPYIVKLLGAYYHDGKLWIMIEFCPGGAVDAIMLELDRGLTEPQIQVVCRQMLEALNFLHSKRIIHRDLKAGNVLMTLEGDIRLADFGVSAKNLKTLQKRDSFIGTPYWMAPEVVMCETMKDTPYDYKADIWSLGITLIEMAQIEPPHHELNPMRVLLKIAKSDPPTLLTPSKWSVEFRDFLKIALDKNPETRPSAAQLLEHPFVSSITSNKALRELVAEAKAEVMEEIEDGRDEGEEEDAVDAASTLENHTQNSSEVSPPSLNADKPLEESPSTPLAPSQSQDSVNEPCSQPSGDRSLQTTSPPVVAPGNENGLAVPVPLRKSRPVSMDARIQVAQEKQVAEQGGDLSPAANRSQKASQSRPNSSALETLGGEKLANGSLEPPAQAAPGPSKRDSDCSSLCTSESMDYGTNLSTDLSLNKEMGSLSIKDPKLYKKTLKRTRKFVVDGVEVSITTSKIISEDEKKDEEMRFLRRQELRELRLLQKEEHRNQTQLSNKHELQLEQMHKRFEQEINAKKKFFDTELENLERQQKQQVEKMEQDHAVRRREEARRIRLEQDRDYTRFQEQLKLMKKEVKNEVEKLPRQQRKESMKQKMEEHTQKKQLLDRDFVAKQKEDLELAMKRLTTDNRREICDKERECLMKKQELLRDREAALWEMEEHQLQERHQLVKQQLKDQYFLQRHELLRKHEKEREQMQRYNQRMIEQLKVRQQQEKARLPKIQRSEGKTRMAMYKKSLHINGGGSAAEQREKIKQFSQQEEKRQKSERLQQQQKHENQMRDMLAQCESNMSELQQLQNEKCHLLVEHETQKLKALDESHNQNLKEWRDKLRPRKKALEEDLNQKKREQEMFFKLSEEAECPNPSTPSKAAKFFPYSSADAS
Chain of FLT1 (P17948 whole entry): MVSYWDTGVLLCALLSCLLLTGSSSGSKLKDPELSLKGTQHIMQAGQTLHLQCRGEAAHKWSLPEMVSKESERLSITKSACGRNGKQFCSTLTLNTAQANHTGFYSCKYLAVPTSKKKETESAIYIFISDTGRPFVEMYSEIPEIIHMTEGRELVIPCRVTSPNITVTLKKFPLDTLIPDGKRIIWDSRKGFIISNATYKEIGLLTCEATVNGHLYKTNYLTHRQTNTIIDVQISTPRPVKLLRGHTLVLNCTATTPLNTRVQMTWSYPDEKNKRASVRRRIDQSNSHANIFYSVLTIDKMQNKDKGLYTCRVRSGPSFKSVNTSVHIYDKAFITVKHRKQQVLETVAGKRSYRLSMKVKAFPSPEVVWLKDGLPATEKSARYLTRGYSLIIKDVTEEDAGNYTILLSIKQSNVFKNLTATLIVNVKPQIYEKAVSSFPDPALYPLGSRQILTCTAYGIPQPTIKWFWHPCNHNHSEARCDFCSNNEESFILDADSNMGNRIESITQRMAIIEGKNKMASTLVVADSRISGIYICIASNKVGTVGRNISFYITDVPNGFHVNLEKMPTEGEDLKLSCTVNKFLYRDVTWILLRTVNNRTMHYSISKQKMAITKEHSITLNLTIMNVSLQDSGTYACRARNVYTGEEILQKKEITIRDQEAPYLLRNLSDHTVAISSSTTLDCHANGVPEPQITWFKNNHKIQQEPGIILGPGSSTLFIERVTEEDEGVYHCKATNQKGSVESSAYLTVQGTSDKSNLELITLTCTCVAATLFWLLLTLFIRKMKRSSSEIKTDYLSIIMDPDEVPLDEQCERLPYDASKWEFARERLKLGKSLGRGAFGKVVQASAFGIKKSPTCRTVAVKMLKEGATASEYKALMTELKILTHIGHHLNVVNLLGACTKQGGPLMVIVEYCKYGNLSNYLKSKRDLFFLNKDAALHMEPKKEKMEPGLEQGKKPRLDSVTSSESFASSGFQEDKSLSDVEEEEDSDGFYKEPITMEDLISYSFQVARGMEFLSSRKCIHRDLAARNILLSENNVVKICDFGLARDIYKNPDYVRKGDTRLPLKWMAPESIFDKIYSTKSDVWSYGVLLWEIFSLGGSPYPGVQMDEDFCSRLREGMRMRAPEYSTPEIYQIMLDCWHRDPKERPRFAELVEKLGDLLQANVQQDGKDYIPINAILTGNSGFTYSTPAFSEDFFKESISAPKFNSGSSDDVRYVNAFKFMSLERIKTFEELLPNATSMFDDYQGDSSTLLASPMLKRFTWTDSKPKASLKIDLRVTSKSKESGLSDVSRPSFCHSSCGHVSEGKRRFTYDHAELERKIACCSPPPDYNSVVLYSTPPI

On to `CNc1ncc2cc(-c3cc(Cl)ccc3Cl)c(=O)n(CCCCN)c2n1` [compound 8, 8-(4-Aminobutyl)-6-(2,5-dichlorophenyl)-2-(methylamino)pyrido[2,3-d]pyrimidin-7(8H)-one], for which the ΔTm at 10 µM was found to be 2.5 °C at LOK (read-out: dTm 8); 0.5 °C at EphA7 (read-out: dTm 8); 2.7 °C on MARK3 (read-out: dTm 8); 4.6 °C on MELK (read-out: dTm 8); 5.3 °C at EphB1 (read-out: dTm 8); 6 °C at FLT1 (read-out: dTm 8). Besides, the ΔTm at 10 µM on ULK3 (read-out: dTm 8) stood at 1 °C; on EpHA5 (read-out: dTm 8), 5.4 °C; on BRD4 (read-out: dTm 8) it was 1.3 °C; at GPRK5 (read-out: dTm 8) it was 0.6 °C; on MYT1 (read-out: dTm 8), 0.3 °C.
For the compound `CNc1ncc2cc(-c3cc(Br)ccc3Br)c(=O)n(CCCCN)c2n1` [compound 11, 8-(4-Aminobutyl)-6-(2,5-dibromophenyl)-2-(methylamino)pyrido[2,3-d]pyrimidin-7(8H)-one], the ΔTm at 10 µM came to 3.6 °C on LOK (read-out: dTm 11); 0.6 °C on EphA7 (read-out: dTm 11); 3.6 °C on MARK3 (read-out: dTm 11); 4.2 °C on MELK (read-out: dTm 11); 4.7 °C at EphB1 (read-out: dTm 11); 5.8 °C on FLT1 (read-out: dTm 11). The ΔTm at 10 µM is 1.3 °C at ULK3 (read-out: dTm 11); 4.7 °C at EpHA5 (read-out: dTm 11); 1 °C at BRD4 (read-out: dTm 11); 0.7 °C on GPRK5 (read-out: dTm 11); -0.4 °C at MYT1 (read-out: dTm 11).
`CNc1ncc2cc(-c3cc(C(F)(F)F)ccc3Cl)c(=O)n(CCCCN)c2n1` [compound 9, 8-(4-Aminobutyl)-6-(2-chloro-5-(trifluoromethyl)phenyl)-2-(methylamino)pyrido[2,3-d]pyrimidin-7(8H)-one]: the ΔTm at 10 µM on LOK (read-out: dTm 9) is 1.6 °C; on EphA7 (read-out: dTm 9) it was 0.6 °C; at MARK3 (read-out: dTm 9), 0.7 °C; at MELK (read-out: dTm 9), 1.6 °C; at EphB1 (read-out: dTm 9) it was 3.3 °C; at FLT1 (read-out: dTm 9), 5.3 °C. In addition, the ΔTm at 10 µM at ULK3 (read-out: dTm 9) was 0.6 °C; at EpHA5 (read-out: dTm 9) it was 2.6 °C; at BRD4 (read-out: dTm 9), 0.7 °C; at GPRK5 (read-out: dTm 9) it was 0.3 °C; at MYT1 (read-out: dTm 9), -0.2 °C.
Regarding `CNc1ncc2cc(-c3cc(F)c(-c4cccc(C)n4)cc3F)c(=O)n(CCCCN)c2n1` [compound 12, 8-(4-Aminobutyl)-6-(2,5-difluoro-4-(6-methylpyridin-2-yl)phenyl)-2-(methylamino)pyrido[2,3-d]pyrimidin-7(8H)-one], the ΔTm at 10 µM at LOK (read-out: dTm 12) is -0.4 °C; at EphA7 (read-out: dTm 12), 2.3 °C; at MARK3 (read-out: dTm 12), 5.3 °C; at MELK (read-out: dTm 12) it was 6.1 °C; on EphB1 (read-out: dTm 12) it was 3.5 °C; at FLT1 (read-out: dTm 12), 2.8 °C. Besides, the ΔTm at 10 µM was 6.7 °C on ULK3 (read-out: dTm 12); 3.2 °C at EpHA5 (read-out: dTm 12); -2 °C at BRD4 (read-out: dTm 12); -0.4 °C at GPRK5 (read-out: dTm 12); -1.8 °C at MYT1 (read-out: dTm 12).
As for `CNc1ncc2cc(-c3cc(Cl)ccc3Br)c(=O)n(CCCCN)c2n1` [compound 10, 8-(4-Aminobutyl)-6-(2-bromo-5-chlorophenyl)-2-(methylamino)pyrido[2,3-d]pyrimidin-7(8H)-one], the ΔTm at 10 µM at LOK (read-out: dTm 10) turned out to be 3.5 °C; on EphA7 (read-out: dTm 10) it was 0.5 °C; at MARK3 (read-out: dTm 10), 3.7 °C; at MELK (read-out: dTm 10), 4.3 °C; on EphB1 (read-out: dTm 10) it was 5.5 °C; at FLT1 (read-out: dTm 10), 5 °C. In addition, the ΔTm at 10 µM at ULK3 (read-out: dTm 10) stood at 1.1 °C; on EpHA5 (read-out: dTm 10), 5.5 °C; on BRD4 (read-out: dTm 10), 1.2 °C; at GPRK5 (read-out: dTm 10) it was 0.6 °C; at MYT1 (read-out: dTm 10) it was 0.6 °C.
